In ChEMBL document CHEMBL1201862, “PubChem BioAssay data set” (2004):
Activity calls are given as the source filed them. Rule as the data show it, for most assays here: actives have a measured IC50 and inactives only a lower limit.

Assays:
Caspase-3 = target: T1, Caspase-3 (Homo sapiens, UniProt P42574); type: functional;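 also: Dose-response selectivity test against caspase-3 for candidate inhibitors of sentrin-specific proteases (SENPs)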
T1 sequence (P42574 whole entry): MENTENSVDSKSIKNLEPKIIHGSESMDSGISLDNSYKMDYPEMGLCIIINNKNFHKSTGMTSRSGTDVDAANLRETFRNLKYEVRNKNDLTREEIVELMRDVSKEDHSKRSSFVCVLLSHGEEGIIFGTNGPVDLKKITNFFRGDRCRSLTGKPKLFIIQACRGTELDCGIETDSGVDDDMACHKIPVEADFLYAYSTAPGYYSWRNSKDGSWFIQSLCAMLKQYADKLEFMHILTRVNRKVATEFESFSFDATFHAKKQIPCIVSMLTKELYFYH

[1] = target: T2, Sentrin-specific protease 7 (Homo sapiens, UniProt Q9BQF6); type: functional;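 also: Luminescence-based dose-response confirmation of ultra-high-throughput screening hits, measuring inhibition of SENP7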
T2 sequence (Q9BQF6 whole entry): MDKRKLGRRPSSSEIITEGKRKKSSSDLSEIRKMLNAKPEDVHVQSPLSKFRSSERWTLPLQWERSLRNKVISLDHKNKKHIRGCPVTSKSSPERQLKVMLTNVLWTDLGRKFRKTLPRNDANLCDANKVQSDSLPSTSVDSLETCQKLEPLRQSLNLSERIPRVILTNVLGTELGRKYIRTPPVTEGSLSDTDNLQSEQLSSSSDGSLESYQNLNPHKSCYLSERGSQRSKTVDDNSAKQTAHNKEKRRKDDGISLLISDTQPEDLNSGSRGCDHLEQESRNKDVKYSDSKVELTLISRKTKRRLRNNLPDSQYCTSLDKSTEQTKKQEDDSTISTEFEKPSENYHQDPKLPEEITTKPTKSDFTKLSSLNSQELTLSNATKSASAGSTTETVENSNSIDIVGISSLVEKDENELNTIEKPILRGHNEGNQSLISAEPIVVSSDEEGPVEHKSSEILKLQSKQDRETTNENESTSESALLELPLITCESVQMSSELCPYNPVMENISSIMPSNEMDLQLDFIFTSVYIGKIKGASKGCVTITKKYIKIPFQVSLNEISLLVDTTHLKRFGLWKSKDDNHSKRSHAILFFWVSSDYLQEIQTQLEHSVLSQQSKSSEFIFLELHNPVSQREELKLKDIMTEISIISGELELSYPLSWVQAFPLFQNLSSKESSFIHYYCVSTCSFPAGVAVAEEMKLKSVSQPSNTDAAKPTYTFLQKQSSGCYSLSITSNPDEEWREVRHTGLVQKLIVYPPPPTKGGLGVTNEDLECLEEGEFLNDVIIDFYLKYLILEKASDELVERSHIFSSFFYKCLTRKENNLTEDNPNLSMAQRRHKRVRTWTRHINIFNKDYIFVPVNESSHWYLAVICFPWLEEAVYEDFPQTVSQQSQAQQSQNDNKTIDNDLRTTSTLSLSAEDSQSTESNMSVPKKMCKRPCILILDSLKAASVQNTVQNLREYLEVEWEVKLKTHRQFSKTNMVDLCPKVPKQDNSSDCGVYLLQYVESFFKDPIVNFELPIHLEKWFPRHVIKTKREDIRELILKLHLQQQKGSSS

[2] = target: T3, Sentrin-specific protease 6 (Homo sapiens, UniProt Q9GZR1); type: functional;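 also: Luminescence-based dose-response confirmatory assay of SENP6 inhibition, following up an ultra-high-throughput screen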
T3 sequence (Q9GZR1 whole entry): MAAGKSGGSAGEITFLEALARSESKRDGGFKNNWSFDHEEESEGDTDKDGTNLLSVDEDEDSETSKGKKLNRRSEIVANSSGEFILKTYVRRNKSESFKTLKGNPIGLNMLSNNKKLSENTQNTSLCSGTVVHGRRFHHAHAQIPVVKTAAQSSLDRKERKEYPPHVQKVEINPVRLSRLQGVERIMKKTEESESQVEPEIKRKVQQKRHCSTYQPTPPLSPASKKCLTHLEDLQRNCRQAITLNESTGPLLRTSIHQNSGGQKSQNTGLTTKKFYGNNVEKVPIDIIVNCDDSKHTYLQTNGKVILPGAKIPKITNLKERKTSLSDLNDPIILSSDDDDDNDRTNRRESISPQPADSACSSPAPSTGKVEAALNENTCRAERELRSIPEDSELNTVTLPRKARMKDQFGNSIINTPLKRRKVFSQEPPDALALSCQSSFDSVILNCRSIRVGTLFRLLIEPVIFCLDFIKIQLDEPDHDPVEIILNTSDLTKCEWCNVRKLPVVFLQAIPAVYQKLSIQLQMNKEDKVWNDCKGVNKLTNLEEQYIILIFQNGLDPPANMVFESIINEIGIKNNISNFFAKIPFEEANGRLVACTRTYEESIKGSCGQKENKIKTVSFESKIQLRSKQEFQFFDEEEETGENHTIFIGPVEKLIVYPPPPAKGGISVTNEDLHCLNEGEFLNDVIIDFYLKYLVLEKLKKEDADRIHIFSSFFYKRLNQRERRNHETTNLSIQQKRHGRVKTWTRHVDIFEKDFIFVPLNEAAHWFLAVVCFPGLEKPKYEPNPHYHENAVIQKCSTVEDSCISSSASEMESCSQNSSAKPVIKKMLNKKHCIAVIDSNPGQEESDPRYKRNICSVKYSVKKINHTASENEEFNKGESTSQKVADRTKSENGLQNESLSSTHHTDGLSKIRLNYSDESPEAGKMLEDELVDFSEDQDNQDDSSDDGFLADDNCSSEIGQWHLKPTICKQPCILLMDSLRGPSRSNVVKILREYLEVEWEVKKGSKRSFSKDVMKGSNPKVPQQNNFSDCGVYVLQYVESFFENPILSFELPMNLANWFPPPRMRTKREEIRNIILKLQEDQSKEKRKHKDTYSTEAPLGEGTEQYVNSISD

[3] = target: T4, Sentrin-specific protease 8 (Homo sapiens, UniProt Q96LD8); type: functional;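 also: luminescence read-out of SENP8 inhibition, dose-response confirmation following an ultra-high-throughput screen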
T4 sequence (Q96LD8 whole entry): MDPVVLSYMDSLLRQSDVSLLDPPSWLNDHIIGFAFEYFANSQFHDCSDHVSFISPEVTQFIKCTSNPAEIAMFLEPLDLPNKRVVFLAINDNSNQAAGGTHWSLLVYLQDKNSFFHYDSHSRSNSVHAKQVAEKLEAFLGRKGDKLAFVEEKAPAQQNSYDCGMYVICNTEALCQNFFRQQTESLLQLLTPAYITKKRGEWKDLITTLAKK

[4] = target: T5, DNA repair and recombination protein RAD54-like (Homo sapiens, UniProt Q92698); experiment: inhibitors of human RAD54 branch migration, confirmation, biochemical, fluorescence, cherry-picked samples, dose series (AID 651657); type: functional
T5 sequence (Q92698 whole entry): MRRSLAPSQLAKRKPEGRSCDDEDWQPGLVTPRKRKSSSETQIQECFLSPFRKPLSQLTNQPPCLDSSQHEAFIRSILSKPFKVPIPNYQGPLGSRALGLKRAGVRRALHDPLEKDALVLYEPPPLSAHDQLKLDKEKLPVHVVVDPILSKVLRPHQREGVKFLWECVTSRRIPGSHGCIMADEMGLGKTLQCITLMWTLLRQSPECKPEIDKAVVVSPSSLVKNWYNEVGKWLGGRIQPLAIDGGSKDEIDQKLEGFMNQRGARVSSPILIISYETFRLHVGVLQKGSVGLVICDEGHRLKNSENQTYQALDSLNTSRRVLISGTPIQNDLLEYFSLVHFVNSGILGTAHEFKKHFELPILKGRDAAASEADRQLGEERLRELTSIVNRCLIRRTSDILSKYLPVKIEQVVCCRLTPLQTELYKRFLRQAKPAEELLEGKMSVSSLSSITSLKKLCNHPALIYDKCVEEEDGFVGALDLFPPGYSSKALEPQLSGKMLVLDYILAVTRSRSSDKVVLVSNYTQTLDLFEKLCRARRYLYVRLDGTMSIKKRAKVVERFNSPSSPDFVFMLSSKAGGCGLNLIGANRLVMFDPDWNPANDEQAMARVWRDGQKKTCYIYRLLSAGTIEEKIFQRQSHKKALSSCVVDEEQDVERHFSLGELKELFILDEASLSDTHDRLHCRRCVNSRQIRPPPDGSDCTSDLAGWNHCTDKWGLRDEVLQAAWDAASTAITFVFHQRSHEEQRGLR

[5] = target: T6, Heat shock factor protein 1 (Mus musculus, UniProt P38532); experiment: HSF1 potentiators in luciferase reporter cells, confirmation, cell-based, NIH3T3, luminescence, dose retest (AID 435004); type: functional;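 also: stress induced by proteasome inhibitor MG132 added 30 min after compound; luciferase reporter driven by HSF1 response element in NIH3T3 cells; actives raise luminescence as potentiators of the MG132 stress response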
T6 sequence (P38532 whole entry): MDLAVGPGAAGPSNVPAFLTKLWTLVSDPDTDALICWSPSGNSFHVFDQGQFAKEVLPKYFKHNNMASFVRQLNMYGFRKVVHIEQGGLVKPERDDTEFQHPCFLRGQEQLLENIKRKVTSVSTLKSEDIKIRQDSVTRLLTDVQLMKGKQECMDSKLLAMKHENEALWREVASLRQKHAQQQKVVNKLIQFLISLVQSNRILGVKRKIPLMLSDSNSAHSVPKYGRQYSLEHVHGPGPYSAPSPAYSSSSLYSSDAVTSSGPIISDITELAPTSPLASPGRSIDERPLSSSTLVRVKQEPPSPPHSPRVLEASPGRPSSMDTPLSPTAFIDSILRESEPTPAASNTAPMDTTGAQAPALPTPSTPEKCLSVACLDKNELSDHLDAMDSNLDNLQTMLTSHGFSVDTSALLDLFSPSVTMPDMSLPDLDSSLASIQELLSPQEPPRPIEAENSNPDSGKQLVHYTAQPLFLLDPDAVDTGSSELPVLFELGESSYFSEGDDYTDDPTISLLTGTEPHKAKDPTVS

Cytochrome P450 2D6 = Cytochrome P450 2D6 (Homo sapiens, UniProt P10635);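 also: CYP2D6 member of a cytochrome P450 panel assay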
Chain of Cytochrome P450 2D6 (P10635 whole entry): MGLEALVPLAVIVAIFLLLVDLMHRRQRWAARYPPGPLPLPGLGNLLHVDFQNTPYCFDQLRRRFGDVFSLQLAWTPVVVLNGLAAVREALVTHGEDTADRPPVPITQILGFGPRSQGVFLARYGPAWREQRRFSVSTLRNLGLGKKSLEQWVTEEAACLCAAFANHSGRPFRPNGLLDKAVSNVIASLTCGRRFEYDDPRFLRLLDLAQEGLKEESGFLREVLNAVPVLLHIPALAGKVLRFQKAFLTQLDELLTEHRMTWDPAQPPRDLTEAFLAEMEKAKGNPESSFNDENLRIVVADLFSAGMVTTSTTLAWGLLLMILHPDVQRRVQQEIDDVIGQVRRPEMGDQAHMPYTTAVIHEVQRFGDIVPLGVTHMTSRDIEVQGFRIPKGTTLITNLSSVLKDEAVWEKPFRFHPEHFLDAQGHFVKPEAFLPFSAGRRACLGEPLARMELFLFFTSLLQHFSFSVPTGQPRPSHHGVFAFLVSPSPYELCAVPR

IC50 (Caspase-3)	IC50 [1]	IC50 [2]	AC50 [4]	EC50 [5]	AC50 (Cytochrome P450 2D6)	SMILES	IC50 [3]
30.8 µM (active)	5.64 µM (active)	9.82 µM (active)	–	–	–	CCOc1ccccc1NC(=O)Nc1ccc2c(c1)CCC2	9.29 µM (active)
–	–	–	8.93 µM (active)	–	–	CN1CCN(c2nc(-c3cccs3)nc3ccccc23)CC1	–
61.3 µM (active)	11.6 µM (active)	47.6 µM (active)	–	49.2 µM (active)	25.1 µM (inconclusive)	CCOC(=O)Nc1ccc(C(=O)Oc2ccccc2)c(O)c1	79.9 µM (active)
18.6 µM (active)	10.1 µM (active)	30.7 µM (active)	–	–	–	CSc1ccccc1NC(=O)c1cc(C2CC2)on1	33.3 µM (active)
–	–	–	30.1 µM (active)	–	–	O=C(Nc1cccc(Cl)c1)c1cc(S(=O)(=O)N2CCOCC2)cs1	–
49.3 µM (active)	9.91 µM (active)	36.1 µM (active)	–	–	–	COc1ccc(/C(C)=N/OCC(=O)Nc2nc3ccccc3s2)cc1OC	62.2 µM (active)
